This passage reports Activity, IC50 and half-life results from ChEMBL document CHEMBL5365532, “Discovery of Triazinone Derivatives as Novel, Specific, and Direct NLRP3 Inflammasome Inhibitors for the Treatment of DSS-Induced Ulcerative Colitis” (J Med Chem, 2023).

The source made the active and inactive calls.

Sequence of NACHT, LRR and PYD domains-containing protein 3 (Q96P20 whole entry, the tested form may be a part): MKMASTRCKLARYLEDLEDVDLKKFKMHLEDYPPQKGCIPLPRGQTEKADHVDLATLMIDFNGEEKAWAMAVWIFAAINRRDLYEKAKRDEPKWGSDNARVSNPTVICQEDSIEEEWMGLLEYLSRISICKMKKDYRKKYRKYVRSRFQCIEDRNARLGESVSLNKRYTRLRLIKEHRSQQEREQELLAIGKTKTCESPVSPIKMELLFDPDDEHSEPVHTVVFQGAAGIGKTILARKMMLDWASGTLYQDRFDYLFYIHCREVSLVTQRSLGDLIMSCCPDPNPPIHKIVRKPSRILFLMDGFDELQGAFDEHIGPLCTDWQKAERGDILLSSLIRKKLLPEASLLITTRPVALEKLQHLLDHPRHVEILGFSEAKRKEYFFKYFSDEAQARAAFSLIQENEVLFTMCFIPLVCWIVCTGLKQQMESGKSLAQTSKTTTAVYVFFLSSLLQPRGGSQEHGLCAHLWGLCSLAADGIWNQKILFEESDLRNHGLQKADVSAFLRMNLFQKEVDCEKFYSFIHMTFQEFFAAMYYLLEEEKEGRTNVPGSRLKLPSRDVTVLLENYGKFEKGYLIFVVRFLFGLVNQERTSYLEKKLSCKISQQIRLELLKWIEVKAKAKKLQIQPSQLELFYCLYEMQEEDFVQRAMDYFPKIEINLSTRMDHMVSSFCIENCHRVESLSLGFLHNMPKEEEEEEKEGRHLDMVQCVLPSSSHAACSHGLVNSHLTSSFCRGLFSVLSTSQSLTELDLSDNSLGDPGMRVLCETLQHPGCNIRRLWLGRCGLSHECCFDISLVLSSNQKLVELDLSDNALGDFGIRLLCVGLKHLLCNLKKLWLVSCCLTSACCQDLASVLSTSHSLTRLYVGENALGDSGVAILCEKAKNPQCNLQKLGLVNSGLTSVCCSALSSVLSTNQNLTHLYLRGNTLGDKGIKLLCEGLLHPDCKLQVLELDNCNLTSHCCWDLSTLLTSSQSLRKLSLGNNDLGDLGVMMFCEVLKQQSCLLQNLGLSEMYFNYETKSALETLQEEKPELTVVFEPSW

The first data set deals with THP-1. The data set can be described thus: Effect on pro-IL-1beta protein expression in PMA-differentiated human THP-1 cells at 0.5 uM pretreated with compound for 40 mins followed by LPS challenge for 3 hrs by western blot analysis. The class given is functional, cell-based. The settings on record: time 220.0 min. In general terms: In western blotting, separated proteins are transferred to a membrane and probed.
Regarding `CC(C)(O)c1coc(S(=O)(=O)NC(=O)Nc2c3c(cc4c2CCC4)CCC3)c1`, the outcome was inactive.

In another data set the test system is Mus musculus. The experiment in a line: Antiinflammatory activity against DSS-induced ulcerative colitis C57BL/6 mouse model assessed as decrease in disease activity index at 30 mg/kg, ip fed with DSS for 6 days followed by administration with compound for 5 days. It is filed as functional, organism-based. Particulars: time 5.0 day.
For `CC(C)c1nn(CC(=O)NC2CCOCC2)c(=O)c2cc3sc(Cl)cc3n12`, the outcome was Active.

For the next data set, the system named is Mus musculus. The experiment in a line: Antiinflammatory activity against DSS-induced ulcerative colitis C57BL/6 mouse model assessed as decrease in colon length shortening at 30 mg/kg, ip fed with DSS for 6 days followed by administration with compound for 5 days and measured on day 11. It is filed as functional, organism-based. The settings on record: time 5.0 day.
In the case of `CC(C)c1nn(CC(=O)NC2CCOCC2)c(=O)c2cc3sc(Cl)cc3n12`, the outcome was Active.

Another data set addresses NACHT, LRR and PYD domains-containing protein 3 (Homo sapiens, UniProt Q96P20). The data set can be described thus: Inhibition of NLRP3 inflammasome in PMA-differentiated human THP-1 cells assessed as inhibition of LPS/nigericin-induced IL-1 beta secretion pretreated with LPS for 3 hrs followed by incubation with compound for 40 mins and later stimulated with nigericin for 35 mins by ELISA. It is filed as cell-based.
Details: not given
In general terms: An ELISA detects its analyte on a solid surface through an enzyme-linked reagent.
One may read the IC50 as the concentration needed to halve the response being measured. As for `O=C(CNC(=O)c1cc2sccc2[nH]1)NC1CCOCC1`, the IC50 was > 10 µM.
For `CC(C)c1nn(Cc2nnc(-c3cccnc3)o2)c(=O)c2cc3sc(Cl)cc3n12`, the 50% inhibitory concentration (IC50) is 1.89 µM.
With `CC(C)c1nn([C@H](C)c2nnc(-c3ccc(C(F)(F)F)nc3Cl)o2)c(=O)c2cc3sc(Cl)cc3n12`, the half-maximal inhibitory concentration (IC50) was > 10 µM.
On to `CC(C)c1nn(Cc2nnc(C3CCCCC3)o2)c(=O)c2cc3sc(Cl)cc3n12`, for which the 50% inhibitory concentration (IC50) is 1.9 µM.
On the same count and under the same terms, the same measure for `CC(C)c1nn(Cc2nnc(-c3cccc(C#N)c3)o2)c(=O)c2cc3sc(Cl)cc3n12`: 0.38 µM.
The same measure, in the same setting: the same measure for `COc1cccc(-c2nnc(Cn3nc(C(C)C)n4c(cc5sc(Cl)cc54)c3=O)o2)c1`: > 10 µM; for `CC(C)c1nn(CC(=O)NC2CCOCC2)c(=O)c2ccc(-c3ccc(Cl)s3)n12`: > 10 µM; for `CC(C)c1nn(CC(=O)NC2CCOCC2)c(=O)c2cc3cc(Cl)ccc3n12`: > 10 µM.
The same measure, in the same setting: the figure for `CC(C)c1nn(Cc2nnc(-c3ccncn3)o2)c(=O)c2cc3sc(Cl)cc3n12` is 1.24 µM.
`CC(C)c1nn(CC(=O)NC2CCOCC2)c(=O)c2cc3ccccc3n12`: the IC50 is > 10 µM.
The same measure, in the same setting: the figure for `CC(C)c1nn(CC(=O)NC2CCOCC2)c(=O)c2cc(NC3COC3)cn12` is > 10 µM; for `CC(C)c1nn([C@@H](C)c2nnc(-c3ccc(C(F)(F)F)nc3Cl)o2)c(=O)c2cc3sc(Cl)cc3n12` it is > 10 µM.
`Cc1cccc(-c2nnc(Cn3nc(C(C)C)n4c(cc5sc(Cl)cc54)c3=O)o2)c1`: the 50% inhibitory concentration (IC50) is > 10 µM.
Same read-out and setting: the figure for `CC(C)c1nn(CC(=O)NC2CCOCC2)c(=O)c2cc(Nc3ccccc3)cn12` is > 10 µM.
On the same count and under the same terms, the figure for `CC(C)c1nn(CC(=O)NC2CCOCC2)c(=O)c2ccc(-c3ccsc3)n12` is > 10 µM; for `CC(C)c1nn(Cc2nnc(-c3cnccn3)o2)c(=O)c2cc3sc(Cl)cc3n12` it is 2.24 µM.
The same measure, in the same setting: the figure for `CC(C)c1nn(CC(=O)NC2CCOCC2)c(=O)c2cccn12` is > 10 µM.
With `CC(C)c1nn(Cc2nnc(-c3cccnc3)[nH]2)c(=O)c2cc3sc(Cl)cc3n12`, the concentration for half-maximal inhibition (IC50) was > 10 µM.
In the case of `CC(C)c1nn(Cc2nnc(C3CCOCC3)o2)c(=O)c2cc3sccc3n12`, the IC50 was > 10 µM.
As for `CC(C)c1nn(Cc2nnc(C3CCOCC3)o2)c(=O)c2cc3sc(Cl)cc3n12`, the half-maximal inhibitory concentration (IC50) is 2.41 µM.
For `O=C(CN1CCn2c(cc3sccc32)C1=O)NC1CCOCC1`, the IC50 is > 10 µM.
Turning to `CC(C)c1nn(Cc2nnc(-c3cc(C(F)(F)F)cnc3Cl)o2)c(=O)c2cc3sc(Cl)cc3n12`, the concentration for half-maximal inhibition (IC50) was found to be 1.77 µM.

Test system in the next data set: not listed separately
The data set can be described thus: Metabolic stability in human liver microsomes. The class given is ADME, Microsome.
Details: not given
For orientation: Liver microsomes are a subcellular fraction often used to study metabolism.
The term half-life denotes the time needed for the level to fall by half in the phase considered. Read a low half-life as fast loss. `CC(C)c1nn(Cc2nnc(-c3ccc(F)nc3F)o2)c(=O)c2cc3sc(Cl)cc3n12` registered a half-life of 8.86 min.
Still for that read-out and setting: the same measure for `[2H]C([2H])(c1nnc(-c2ccc(C(F)(F)F)nc2Cl)o1)n1nc(C(C)C)n2c(cc3sc(Cl)cc32)c1=O`: 25.1 min; for `CC(C)c1nn([C@H](C)c2nnc(-c3ccc(C(F)(F)F)nc3Cl)o2)c(=O)c2cc3sc(Cl)cc3n12`: 59.2 min.
As for `Cc1ccc(-c2nnc(Cn3nc(C(C)C)n4c(cc5sc(Cl)cc54)c3=O)o2)c(Cl)n1`, the half-life was 15.2 min.
Take `CC(C)c1nn(CC(=O)NC2CCOCC2)c(=O)c2cc3sc(Cl)cc3n12`: the half-life was determined as 18.7 min.
For the compound `CC(C)c1nn(Cc2nnc(-c3cc(F)cnc3Cl)o2)c(=O)c2cc3sc(Cl)cc3n12`, the half-life was found to be 7.66 min.

Another data set concerns THP-1. The data set can be described thus: Effect on NLRP3 protein expression in PMA-differentiated human THP-1 cells at 0.5 uM pretreated with compound for 40 mins followed by LPS challenge for 3 hrs by western blot analysis. The class given is functional, cell-based. The settings on record: time 220.0 min.
With `CC(C)(O)c1coc(S(=O)(=O)NC(=O)Nc2c3c(cc4c2CCC4)CCC3)c1`, the result was inactive.
